Values of other authors as cited in patent publication US20230181603A1, “METHODS OF TREATING CANCER WITH METABOLITE ADJUSTMENTS” (priority 2021, published 2023).

Assays:
glial precursor cell = settings: slice cultures

## CCCCCCCCCCCCCCCC(=O)OC[C@H](O)[C@H]1OC(=O)C(O)=C1O [Ascorbyl palmitate]
hyaluronidase
  hyaluronidase inhibitor effective concentration: low-micromolar range
Glial precursor cell
  inhibition of glial precursor cell migration: potently inhibits
